Patent US20100130516A1, “PURINYL DERIVATIVES AND THEIR USE AS POTASSIUM CHANNEL MODULATORS” (NeuroSearch A/S, priority 2007, published 2010)

Biological target: T1, hSK3 channels (Homo sapiens, UniProt Q9UGI6)
T1 construct: expressed in transfected cells; host or cells: HEK293
Assay: Whole-cell patch-clamp recording of ionic current through SK channels (subtype 3)
Assay type: cell-based
Settings: HEK293 cells expressing hSK3 channels
Experimental: The ionic current through small-conductance Ca^2+-activated K^+ channels (SK channels, subtype 3) is recorded using the whole-cell configuration of the patch-clamp technique in a classic patch-clamp set-up using HEK293 tissue culture cells expressing hSK3 channels as described in e.g. WO 2006/100212.
The SC100 value determined is defined as the Stimulating Concentration required for increasing the baseline current by 100%. The below SC100 value is an indication of the SK3 activating properties of the compound of the invention.

For Cc1ccn(-c2nc(Nc3ccc(F)c(F)c3)c3ncn(C)c3n2)n1 [Compound 5.1, (3,4-Difluoro-phenyl)-[9-methyl-2-(3-methyl-pyrazol-1-yl)-9H-purin-6-yl]-amine], the “SC100 (Stimulating Concentration required for increasing the baseline current by 100%)” value was 0.04 µM.
